Test results from patent US9321760B2 (Merck Patent GmbH, priority 2011, dated 2016).
pIC50: −log10 of the molar value.

Each compound was assayed against P70S6K (T412E mutant) (Homo sapiens (Human), UniProt P23443, T412E) (assay: P70S6K enzyme assay). Details: 3 nM P70S6K T412E mutant, 24 μM ATP, 1 μM FITC-AHA-AKRRRLSSLRA-OH substrate peptide, 90 min at 25° C.
Sequence of P70S6K (T412E mutant) (P23443 whole entry T412E): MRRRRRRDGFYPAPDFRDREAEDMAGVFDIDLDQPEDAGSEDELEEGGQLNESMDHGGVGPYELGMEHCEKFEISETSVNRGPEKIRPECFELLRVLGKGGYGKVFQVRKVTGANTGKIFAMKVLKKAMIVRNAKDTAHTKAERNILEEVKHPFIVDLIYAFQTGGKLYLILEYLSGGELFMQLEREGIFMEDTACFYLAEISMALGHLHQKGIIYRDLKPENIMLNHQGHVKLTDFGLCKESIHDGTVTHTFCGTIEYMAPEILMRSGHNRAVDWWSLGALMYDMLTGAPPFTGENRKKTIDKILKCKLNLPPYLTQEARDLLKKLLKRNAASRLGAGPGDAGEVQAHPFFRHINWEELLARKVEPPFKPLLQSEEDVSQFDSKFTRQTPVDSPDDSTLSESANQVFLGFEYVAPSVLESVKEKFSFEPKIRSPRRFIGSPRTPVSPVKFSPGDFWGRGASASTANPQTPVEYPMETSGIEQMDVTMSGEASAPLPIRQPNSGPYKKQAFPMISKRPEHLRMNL
Type: biochemical
Experimental: The IC50 values reported for the compounds in the Experimental section were derived from the following protocol for the p70S6K enzyme assay.
P70S6K inhibitor compounds were diluted and plated in 96 well plates. A reaction mixture including the following components was then added to the compound plate to initiate the enzyme reaction; P70S6K (3 nM, T412E mutant, Millipore) was mixed with 24 μM ATP in an assay buffer containing 100 mM Hepes (pH 7.5), 5 mM MgCl2, 1 mM DTT, 0.015% Brij and 1 μM of the substrate peptide FITC-AHA-AKRRRLSSLRA-OH (derived from the S6 ribosomal protein sequence, FITC=fluorescein isothiocyanate, AHA=6-aminohexanoic acid). The reaction was incubated for 90 min at 25° C., before the addition of 10 mM EDTA to stop the reaction. The proportion of substrate and product (phosphorylated) peptide was analysed on a Caliper Life Sciences Lab Chip 3000, using a pressure of −1.4 psi, and upstream and downstream voltages of −3000 and −700 respectively. Product peaks were resolved before substrate peaks on the resulting chromatograms.
For `NC[C@@H](c1ccc(C(F)(F)F)cc1)N1CCN(c2ncnc(N)c2-c2ccc(F)cc2)CC1` [Example 4, 6-{4-[(R)-2-Amino-1-(4-trifluoromethyl-phenyl)-ethyl]-piperazin-1-yl}-5-(4-fluoro-phenyl)-pyrimidin-4-ylamine], the pIC50 was 8.35.
For `NCC(c1ccc(C(F)(F)F)cc1)C1CCN(c2ncnc(N)c2-c2ccc(F)cc2)CC1` (stereo not shown) [Example 52, 6-{4-[2-Amino-1-(4-trifluoromethyl-phenyl)-ethyl]-piperidin-1-yl}-5-(4-fluoro-phenyl)-pyrimidin-4-ylamine], the pIC50 was 8.48.
For `Nc1ncnc(N2CCN(C(CN3CCC3)c3cccc(C(F)(F)F)c3F)CC2)c1-c1cn[nH]c1` (stereo not shown) [Example 99, 6-{4-[2-Azetidin-1-yl-1-(2-fluoro-3-trifluoromethyl-phenyl)-ethyl]-piperazin-1-yl}-5-(1H-pyrazol-4-yl)-pyrimidin-4-ylamine], the pIC50 was 6.17.
`Nc1ncnc(N2CC[C@](N)(CNC(=O)c3ccc(F)cc3F)C2)c1-c1ccc(F)cc1` (single isomer, unassigned) [Example 249] gave a pIC50 of 8.23.
`Nc1ncnc(N2CCN([C@H](CN3CCC3)c3cccc(F)c3)CC2)c1-c1cn[nH]c1` [Example 87, 6-{4-[(S)-2-Azetidin-1-yl-1-(3-fluoro-phenyl)-ethyl]-piperazin-1-yl}-5-(1H-pyrazol-4-yl)-pyrimidin-4-ylamine] showed a pIC50 of 5.06.
Work on `Cc1ccc([C@H](CCO)NC(=O)C2(N)CCN(c3ncnc(N)c3C#N)CC2)cc1` [Example 227, 4-Amino-1-(6-amino-5-cyano-pyrimidin-4-yl)-piperidine-4-carboxylic acid ((S)-3-hydroxy-1-p-tolyl-propyl)-amide] yielded a pIC50 of 6.55.
`NCC(c1cccc(F)c1)N1CCN(c2ncnc(N)c2-c2ccc(F)cc2)CC1` (stereo not shown) [Example 169, 6-{4-[2-Amino-1-(3-fluoro-phenyl)-ethyl]-piperazin-1-yl}-5-(4-fluoro-phenyl)-pyrimidin-4-ylamine] showed a pIC50 of 8.39.
Compound `Nc1ncnc(N2CCN([C@@H](CN3CCC3)c3ccc4c(c3)OCCO4)CC2)c1-c1cn[nH]c1` [Example 107, 6-{4-[(R)-2-Azetidin-1-yl-1-(2,3-dihydro-benzo[1,4]dioxin-6-yl)-ethyl]-piperazin-1-yl}-5-(1H-pyrazol-4-yl)-pyrimidin-4-ylamine] has a pIC50 of 5.28.
`N#Cc1cccc([C@H](CN2CCC2)N2CCN(c3ncnc(N)c3-c3ccc(F)cc3)CC2)c1` [Example 129, 3-((R)-1-{4-[6-Amino-5-(4-fluoro-phenyl)-pyrimidin-4-yl]-piperazin-1-yl}-2-azetidin-1-yl-ethyl)-benzonitrile] showed a pIC50 of 6.21.
Compound `N#Cc1c(N)ncnc1N1CCC(N)(C(=O)N[C@H](c2ccc(Cl)cc2)C(F)(F)F)CC1` [Example 220] has a pIC50 of 5.49.
For `CC(c1ccc(Cl)cc1OC1CNC1)N1CCN(c2ncnc(N)c2-c2ccc(F)cc2)CC1` (stereo not shown) [Example 63, 6-(4-{1-[2-(Azetidin-3-yloxy)-4-chloro-phenyl]-ethyl}-piperazin-1-yl)-5-(4-fluoro-phenyl)-pyrimidin-4-ylamine], the pIC50 was 6.01.
In the case of `Nc1ncnc(N2CCN(C(CN3CCCCC3)c3cccc(F)c3)CC2)c1Br` (stereo not shown) [Example 68, 5-Bromo-6{4-[1-(3-fluoro-phenyl)-2-piperidin-1-yl-ethyl]-piperazin-1-yl}-pyrimidin-4-ylamine], the pIC50 was < 6.00.
`NCC(c1ccc(C(F)(F)F)cc1)N1CCN(c2ncnc(N)c2OCC(F)(F)F)CC1` (stereo not shown) [Example 33, 6-(4-(2-amino-1-(4-(trifluoromethyl)phenyl)ethyl)piperazin-1-yl)-5-(2,2,2-trifluoroethoxy)pyrimidin-4-amine] was tested, and the pIC50 was 7.31.
With `Nc1ncnc(N2CCC(N)(C(=O)N[C@@H](CCO)c3ccc(C(F)(F)F)cc3)CC2)c1Cl` [Example 223, 4-Amino-1-(6-amino-5-chloro-pyrimidin-4-yl)-piperidine-4-carboxylic acid [(S)-3-hydroxy-1-(4-trifluoromethyl-phenyl)-propyl]-amide] the pIC50 was 4.66.
For `COC(=O)c1ccc([C@@H](CN2CCC2)N2CCN(c3ncnc(N)c3-c3cn[nH]c3)CC2)cc1` [Example 89, 4-((S)-1-{4-[6-Amino-5-(1H-pyrazol-4-yl)-pyrimidin-4-yl]-piperazin-1-yl}-2-azetidin-1-yl-ethyl)-benzoic acid methyl ester], the pIC50 was 5.57.
In the case of `Cc1cc(C(CN2CCC2)N2CCN(c3ncnc(N)c3-c3cn[nH]c3)CC2)ccc1Cl` (stereo not shown) [Example 109, 6-{4-[2-Azetidin-1-yl-1-(4-chloro-3-methyl-phenyl)-ethyl]-piperazin-1-yl}-5-(1H-pyrazol-4-yl)-pyrimidin-4-ylamine], the pIC50 was 5.72.
Compound `C=Cc1c(N)ncnc1N1CCN(C(CN)c2ccc(C(F)(F)F)cc2)CC1` (stereo not shown) [Example 19, 6-(4-(2-amino-1-(4-(trifluoromethyl)-phenyl)ethyl)piperazin-1-yl)-5-vinylpyrimidin-4-amine] has a pIC50 of 7.72.
For `CCOC(=O)Cn1cc(-c2c(N)ncnc2N2CCN(C(CN3CCC3)c3ccc(Cl)c(Cl)c3)CC2)cn1` (stereo not shown) [Example 117, [4-(4-Amino-6-{4-[2-azetidin-1-yl-1-(3,4-dichloro-phenyl)-ethyl]-piperazin-1-yl}-pyrimidin-5-yl)-pyrazol-1-yl]-acetic acid ethyl ester], the pIC50 was 4.62.
Work on `Nc1ncnc(N2CCN(Cc3cc(Cl)c(Cl)cc3O)CC2)c1-c1ccc(F)cc1` [Example 60, 2-((4-(6-amino-5-(4-fluorophenyl)pyrimidin-4-yl)piperazin-1-yl)methyl)-4,5-dichlorophenol] yielded a pIC50 of 7.13.
Compound `CN(C)CC(c1ccc(C(F)(F)F)cc1)N1CCN(c2ncnc(N)c2Br)CC1` (stereo not shown) [Example 14, 5-bromo-6-(4-(2-(dimethylamino)-1-(4-(trifluoromethyl)phenyl)ethyl)piperazin-1-yl)pyrimidin-4-amine] has a pIC50 of 7.42.
`NCC(c1ccc(C(F)(F)F)cc1)C1CCN(c2ncnc(N)c2Br)CC1` (stereo not shown) [Example 51, 6-{4-[2-Amino-1-(4-trifluoromethyl-phenyl)-ethyl]-piperidin-1-yl}-5-bromo-pyrimidin-4-ylamine] showed a pIC50 of 7.39.
`Nc1ncnc(N2CCN([C@@H](CN3CCC3)c3ccc4c(c3)OCCO4)CC2)c1-c1ccc(F)cc1` [Example 94, 6-{4-[(R)-2-Azetidin-1-yl-1-(2,3-dihydro-benzo[1,4]dioxin-6-yl)-ethyl]-piperazin-1-yl}-5-(4-fluoro-phenyl)-pyrimidin-4-ylamine] was tested, and the pIC50 was 5.80.
For `NCC(c1ccc(Cl)nc1)N1CCN(c2ncnc(N)c2-c2ccc(F)cc2)CC1` (stereo not shown) [Example 174, 6-{4-[2-Amino-1-(6-chloro-pyridin-3-yl)-ethyl]-piperazin-1-yl}-5-(4-fluoro-phenyl)-pyrimidin-4-ylamine], the pIC50 was 8.07.
In the case of `COC(=O)Cn1cc(-c2c(N)ncnc2N2CCN(C(CN3CCC3)c3cccc(C#N)c3)CC2)cn1` (stereo not shown) [Example 130, [4-(4-Amino-6-{4-[2-azetidin-1-yl-1-(3-cyano-phenyl)-ethyl]-piperazin-1-yl}-pyrimidin-5-yl)-pyrazol-1-yl]-acetic acid methyl ester], the pIC50 was < 4.00.
In the case of `NCC(c1ccc(C(F)(F)F)cc1)N1CCN(c2ncnc(N)c2CN2CC(F)C2)CC1` (stereo not shown) [Example 45, 6-(4-(2-amino-1-(4-(trifluoromethyl)phenyl)ethyl)piperazin-1-yl)-5-((3-fluoroazetidin-1-yl)methyl)pyrimidin-4-amine], the pIC50 was 6.68.
